In brackets after ≈: the same amount, converted by molar mass.
Tests used:
[1] = Aqueous solubility, shake-flask method; type: physicochemical; conditions: shaking flask, buffered media at pH 7.0, mean of three
How it was run: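 Concentration read by UV at maximum absorbance wavelength, interpolated on each compound's own calibration line, mean of three independent runs. Samples were suspensions of 5 mg in 500 µL pH 7.0 buffer, stirred at room temperature for 72 h and filtered before reading.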

HT-29 cells = assay: Cell growth inhibition (MTT) in the presence of 10 µM verapamil (sensitivity to MDR efflux pumps); type: cell-based, human; conditions: 10 µM verapamil (P-gp/MDR1 inhibitor)
U87MG cells [2] = assay: Cell cycle analysis (PI, flow cytometry); type: cell-based, human; conditions: for combined G2/M plus subG0/G1 populations: over the three time points (24, 48, 72 h)
Procedure: An amount of 8 × 10^4 cells/mL (HeLa, MCF7, or U87 MG cells) were seeded in 6-well plates (2 mL/well) and incubated in complete DMEM medium (see above) at 37 °C and 5% CO2 atmosphere for 24 h. Then, the medium was replaced with fresh complete DMEM in the presence or absence of the selected compounds (8, 9, and 14). The concentration of the compounds was selected according to their IC50 value for the antiproliferative activity in each cell line (see above, Section 2.4.4). […] Untreated cells were used as negative controls. Cells were harvested 24, 48, or 72 h following treatment and fixed in ice-cold ethanol/PBS (7:3) overnight. Cells were then washed twice with PBS, suspended in PBS, and incubated overnight in darkness with 0.2 mg/mL RNase A (Sigma-Aldrich, St. Louis, MO, USA), 50 µg/mL propidium iodide (Sigma-Aldrich, St. Louis, MO, USA), and Triton 10× at room temperature. BD Accuri™ C6 Plus Flow Cytometer (BD Biosciences) was used to analyze samples, and BD Accuri™ C6 Software (version 1.0.264.21) was used for data analysis.

HEK-293 cells = assay: Lactate dehydrogenase (LDH) release assay; type: cell-based, human; conditions: HEK-293, 72 h; for LDH release: 100 µM
Procedure: CytoTox96® Non-Radioactive Cytotoxicity Assay kit (Promega, Madison, WI, USA) was used to measure the release of lactate dehydrogenase (LDH) by following the previously described method in [46]. […] After treatment, the supernatants were collected, and the intact attached cells were lysed using 0.1% (w/v) Triton X-100 in (0.9%) NaCl solution. Both the LDH released to culture media, as well as the LDH content within the cells, were determined spectrophotometrically at 490 nm on a 96-well plate reader (Infinite 200, Tecan, Salzburg, Austria) by following the manufacturer’s instructions. LDH release was defined by the ratio of LDH released/total LDH present in the cells, with the total LDH being 100%. All the samples were run in quadruplicate.

U87MG cells [3] = assay: Immunofluorescence of cellular microtubules (confocal microscopy); type: cell-based, human; conditions: 24 h, 8 50 nM, 9 and 14 100 nM
Procedure: The 8 × 10^4 HeLa, MCF7, and U87 MG cells were seeded on 0.01% poly-L-lysine pre-coated square glass coverslips ([…]) deposited on 6-well plates (1 coverslip/well) and incubated in complete DMEM medium (see above) at 37 °C and 5% CO2 atmosphere for 24 h. Then, the culture medium was replaced by fresh complete DMEM, and cells were incubated in the presence or absence of selected compounds for 24 h. Untreated cells were used as negative controls. […] In that way, compounds with similar antiproliferative potencies were tested at the same concentrations. HeLa cells were treated with 200 nM of compounds 8 and 14 and 500 nM of compound 9; MCF7 cells were treated with 100 nM of compounds 8 and 14 and 500 nM of compound 9; and U87 MG cells were treated with 50 nM of compound 8 and 100 nM of compounds 9 and 14. After incubation, medium was removed and coverslips were washed three times with PBS, fixed in 4% formaldehyde in PBS for 10 min, permeabilized with 0.5% Triton X-100 (Sigma-Aldrich, St. Louis, MO, USA) in PBS for 90 s at 4 °C, and blocked with 10% BSA in PBS for 30 min. After four washes with PBS, the coverslips were incubated for 1 h with anti-α-tubulin mouse monoclonal antibody (Sigma-Aldrich, St. Louis, MO, USA), and diluted 1:200 in PBS containing 3% BSA. After four washes wish PBS, coverslips were incubated, in darkness, with fluorescent secondary antibody Alexa Fluor 488 goat anti-mouse IgG (Molecular Probes, Invitrogen, Eugenen, OR, USA), and diluted 1:400 in PBS containing 1% BSA for 1.5 h. After four washes with PBS, a drop of ProLong™ Gold Antifade Mountant containing DAPI (ThermoFisher, Waltham, MA, USA) was added for cell nuclei staining. Samples were analyzed via confocal microscopy using a LEICA SP5 microscope DMI-6000V model coupled to a LEICA LAS AF software computer.

[4] = 24 h, 8 50 nM, 14 and 9 200 nM (Figure 6 legend; 100 nM in methods)

SMILES | Solubility [1] [µg/mL] | IC50 (HT-29 cells) [nM] | G2/M population (U87MG cells [2]; [4]) [%] | SubG0/G1 population (U87MG cells [2]; [4]) [%] | combined G2/M plus subG0/G1 populations (U87MG cells [2]) | LDH release (HEK-293 cells) [%] | effect on the microtubule network (U87MG cells [3]) | solubility at 72 h ([1]; pH 7.0 buffer, pH 7, aqueous buffer, thermodynamic from solid) [µg/mL] | cytotoxic effect by LDH release (in words) (HEK-293 cells; between 0.1 and 1 µM)
CCNC(=O)N(Cc1cccnc1)c1nc2ccc(OC)cc2s1 [Compound 8] | 102 (≈ 298 µM) | 215 | 39 | 41 | ~85% | ~30 | disruption of the microtubule network |  | 
COc1ccc2nc(N(C=O)Cc3cccnc3)sc2c1 [Compound 14, N-(6-methoxybenzo[d]thiazol-2-yl)-N-(pyridin-3-ylmethyl)formamide] |  | 307 |  |  | roughly 75% | ~30 | disruption of the microtubule network | 95 (≈ 317 µM) | No significant cytotoxic effects

Reference: PMC10301603, “Potent and Selective Benzothiazole-Based Antimitotics with Improved Water Solubility: Design, Synthesis, and Evaluation as Novel Anticancer Agents” (Pharmaceutics, 2023)
